{"source": "patent US8314088B2", "about": "“Pyrazinooxazepine derivatives” (Takeda Pharmaceutical Company Limited, priority 2009, dated 2012)", "key": {"[1]": {"target": "serotonin 5-HT2C receptor (Homo sapiens, UniProt P28335, I156V/I160V/N158S)", "sequence (P28335 33-458 I156V/N158S/I160V limits assumed)": "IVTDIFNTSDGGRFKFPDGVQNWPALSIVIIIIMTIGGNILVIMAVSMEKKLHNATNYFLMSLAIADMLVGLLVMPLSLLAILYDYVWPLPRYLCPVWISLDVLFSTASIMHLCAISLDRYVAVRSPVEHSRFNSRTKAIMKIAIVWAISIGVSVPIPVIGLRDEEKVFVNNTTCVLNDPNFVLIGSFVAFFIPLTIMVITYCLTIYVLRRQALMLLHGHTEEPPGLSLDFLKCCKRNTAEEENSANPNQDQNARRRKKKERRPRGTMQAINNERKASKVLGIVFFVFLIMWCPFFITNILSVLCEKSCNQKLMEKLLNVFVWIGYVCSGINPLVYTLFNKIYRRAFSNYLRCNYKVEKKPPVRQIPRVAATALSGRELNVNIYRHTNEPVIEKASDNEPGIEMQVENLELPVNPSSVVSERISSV", "assay_type": "cell-based"}, "[2]": {"tested_on": "SD female rats", "assay": "stress urinary incontinence: leak point pressure before and after administration (Experimental Example 5a)", "assay_type": "in vivo, rat", "settings": "i.v., spinal cord-transected SD female rats", "method": "The effect of the compound of the present invention for stress urinary incontinence was measured by comparing the leak point pressure before and after the administration of the compound as shown below. SD female rats (body weight 200-270 g) were anesthetized with urethane (Wako Pure Chemical Industries, Ltd.), and the spinal cord was cut at T8-9 level to eliminate the micturition reflex. During the operation, isoflurane anesthesia was added as necessary. The rats were fixed at a dorsal position, and two catheters (PE-100; Clay Adams) were indwelled in the bladder. One of the catheters was filled with saline stained with Evans Blue dye (Merck), and connected to a 50 ml syringe (TERUMO CORPORATION) fixed on an infusion pump (KD Scientific) via a three-way cock. The other catheter was connected to a pressure transducer (DX-100; NIHON KOHDEN CORPORATION), and signals of the transducer were transmitted to computer via an amplifier (blood pressure amplification unit AP-641G; NIHON KOHDEN CORPORATION) and a data analyzer (BIOPAC; MP100), and recorded on a hard disk. The data was analyzed on the computer using a software (BIOPAC; AcqKnowledge). A DMA/PEG400 (1:1) solution was intravenously administered to the rats at 0.5 mL/kg. From 10 min later, saline was injected into the bladder using the infusion pump at a rate of 360 ml/hr, infusion was stopped on the moment fluid leakage from the urethral meatus was observed, and the solution in the bladder was discharged by opening the three-way cock. The maximum intravesical pressure during infusion was taken as a leak point pressure, which was measured repeatedly until the value was stabilized, and the average value of the last three measures was taken as the data. […] Williams test was used for statistical calculation."}, "[3]": {"tested_on": "Male F344 rats", "assay": "obesity: food consumption after single gavage dose (Experimental Example 6a)", "assay_type": "in vivo, rat", "settings": "0.5 mg/mL in 0.5% methylcellulose, 2 mL/kg by gavage; 24 hr after administration; obese F344 rats on high-fat diet", "method": "Experimental Example 6a The effect of the compound of the present invention for obesity was measured using the food consumption calculated as follows as an index. Male F344 rats (CLEA Japan, Inc.) were purchased at 5 weeks of age, and raised by groups on a solid high-fat diet with fat content 45 kcal % (D12451, Research Diets). When sufficient obesity was observed (40 to 60-week-old), they were raised singly, and given a powder high-fat diet with lipid content 45 kcal % […], Research Diets) in a feeder. The rats were grouped using body weight and food consumption (18:00-8:00) one day before administration as indices. […] A 0.5% methylcellulose solution was administered to the control group. After administration, a previously-weighed feeder was placed in the breeding cage. The feeder was weighed 24 hr after the administration and the food consumption was calculated."}, "[4]": {"tested_on": "female spinal cord-transected rats with bilaterally transected hypogastric nerve and pudendal nerve", "assay": "organ prolapse: urethral closure response induced by increased intravesical pressure (Experimental Example 7a)", "assay_type": "in vivo, rat", "parameters": "unit not given here", "settings": "1 mg/kg, i.v.; evaluated 10 min after administration", "method": "The effect of the compound of the present invention for organ prolapse was measured by examining the enhancement of urethral closure response by pelvic floor muscles (iliococcygeal muscle, pubococcygeal muscle etc.) induced by an increased intravesical pressure, by compound administration. The enhancing action of the compound on urethral closure response induced by an increased intravesical pressure was measured using female spinal cord-transected rats with bilaterally transected hypogastric nerve and pudendal nerve. SD female rats (body weight 246-298 g) were anesthetized with urethane, and the spinal cord was cut at T8-9 level to eliminate the micturition reflex. During the operation, isoflurane anesthesia was added as necessary. After abdominal section, bladder neck was ligated with a suture thread, and then the hypogastric nerve and pudendal nerve were bilaterally transected. […] The changes in the topical pressure within the urethra (hereinafter conveniently indicated as urethral pressure) as measured by the microtip transducer was transmitted to a computer via an amplifier and a data intake device, and recorded on a hard disc. […] The reaction of the urethra induced by an increased intravesical pressure was measured repeatedly until the value is stabilized, and the average of the last 2 measures was taken as the value before drug administration. […]"}, "[5]": {"tested_on": "male F344 rats (DIO-F344 rat)", "assay": "obesity: body weight and food consumption in high-fat diet-loaded rats, osmotic pump (Experimental Example 6b)", "assay_type": "in vivo", "settings": "subcutaneous osmotic pump; for body weight loss (%): 14 days", "method": "The effect of the compound of the present invention for obesity was measured using high-fat diet-loaded rats based on the effects on body weight and food consumption. 38 to 60-week-old male F344 rats (DIO-F344 rat) raised on a […] fat high-fat diet (D12451, Research Diets) from 7 weeks of age were used. They were grouped based on the body weight one day before operation. The compound of Example 8 was dissolved in saline, filled in an osmotic pump (Alzet osmotic pump 2mL2 type), and subcutaneously implanted under isoflurane anesthesia. The body weight was measured on completion of the operation, and measured again at 14 days postoperation. In addition, the amount of remaining food was measured, and food consumption for 14 days was measured. For statistical calculation, Williams test was used."}}, "data": [{"smiles": "C[C@@H]1COCCN1c1cnc2c(n1)OCCNC2.Cl", "note": "[Example 5, 3-[(3R)-3-methylmorpholin-4-yl]-6,7,8,9-tetrahydropyrazino[2,3-f][1,4]oxazepine hydrochloride]", "values": [{"measurement": "ratio (%) relative to maximum response by 5-HT (1 μM)", "setting": "[1]", "result": 95, "unit": "%"}, {"measurement": "Change in leak point pressure (cmH2O)", "setting": "[2]; 0.03 mg/kg", "result": "5.2 ± 1.7", "unit": "cmH2O"}, {"measurement": "Change in leak point pressure (cmH2O)", "setting": "[2]; 0.1 mg/kg", "result": "9.1 ± 1.3", "unit": "cmH2O"}, {"measurement": "Change in leak point pressure (cmH2O)", "setting": "[2]; 0.3 mg/kg", "result": "13.6 ± 2.4", "unit": "cmH2O"}, {"measurement": "Change in leak point pressure (cmH2O)", "setting": "[2]; 1 mg/kg", "result": "19.6 ± 1.9", "unit": "cmH2O"}, {"measurement": "suppression of food consumption as compared to the control group", "setting": "[3]", "result": 21.8, "unit": "%"}, {"measurement": "urethral closure respons (ratio relative to value before administration)", "setting": "[4]", "result": "227 ± 32"}]}, {"smiles": "C[C@@H]1COCCN1c1cnc2c(n1)O[C@@H](C)CNC2.Cl", "note": "[Example 7, (6S)-6-methyl-3-[(3R)-3-methylmorpholin-4-yl]-6,7,8,9-tetrahydropyrazino[2,3-f][1,4]oxazepine hydrochloride]", "values": [{"measurement": "ratio (%) relative to maximum response by 5-HT (1 μM)", "setting": "[1]", "result": 108, "unit": "%"}]}, {"smiles": "CC(C)N(C)c1cnc2c(n1)OCCNC2.Cl", "note": "[Example 8, N-methyl-N-(1-methylethyl)-6,7,8,9-tetrahydropyrazino[2,3-f][1,4]oxazepin-3-amine hydrochloride]", "values": [{"measurement": "ratio (%) relative to maximum response by 5-HT (1 μM)", "setting": "[1]", "result": 95, "unit": "%"}, {"measurement": "Change in leak point pressure (cmH2O)", "setting": "[2]; 0.1 mg/kg", "result": "5.4 ± 1.6", "unit": "cmH2O"}, {"measurement": "Change in leak point pressure (cmH2O)", "setting": "[2]; 0.3 mg/kg", "result": "10.8 ± 3.3", "unit": "cmH2O"}, {"measurement": "Change in leak point pressure (cmH2O)", "setting": "[2]; 1 mg/kg", "result": "17.3 ± 3.4", "unit": "cmH2O"}, {"measurement": "Change in leak point pressure (cmH2O)", "setting": "[2]; 3 mg/kg", "result": "23.6 ± 3.3", "unit": "cmH2O"}, {"measurement": "food consumption/14 days", "setting": "[5]; 3 mg/kg/day", "result": "150 ± 7", "unit": "g"}, {"measurement": "body weight loss (%)", "setting": "[5]; 3 mg/kg/day", "result": "4.8 ± 0.5", "unit": "%"}, {"measurement": "food consumption/14 days", "setting": "[5]; 10 mg/kg/day", "result": "140 ± 6", "unit": "g"}, {"measurement": "body weight loss (%)", "setting": "[5]; 10 mg/kg/day", "result": "4.9 ± 0.3", "unit": "%"}, {"measurement": "food consumption/14 days", "setting": "[5]; 30 mg/kg/day", "result": "110 ± 2", "unit": "g"}, {"measurement": "body weight loss (%)", "setting": "[5]; 30 mg/kg/day", "result": "7.5 ± 0.3", "unit": "%"}, {"measurement": "urethral closure respons (ratio relative to value before administration)", "setting": "[4]", "result": "192 ± 13"}]}, {"smiles": "CC(C)Oc1cnc2c(n1)OCCNC2.Cl", "note": "[Example 2, 3-(1-methylethoxy)-6,7,8,9-tetrahydropyrazino[2,3-f][1,4]oxazepine hydrochloride]", "values": [{"measurement": "ratio (%) relative to maximum response by 5-HT (1 μM)", "setting": "[1]", "result": 93, "unit": "%"}]}, {"smiles": "Cl.c1nc2c(nc1C1CC1)OCCNC2", "note": "[Example 10, 3-cyclopropyl-6,7,8,9-tetrahydropyrazino[2,3-f][1,4]oxazepine hydrochloride]", "values": [{"measurement": "ratio (%) relative to maximum response by 5-HT (1 μM)", "setting": "[1]", "result": 89, "unit": "%"}]}, {"smiles": "C[C@H]1CNCc2ncc(N3CCOCC3)nc2O1", "note": "[Example 6, (6S)-6-methyl-3-(morpholin-4-yl)-6,7,8,9-tetrahydropyrazino[2,3-f][1,4]oxazepine]", "values": [{"measurement": "ratio (%) relative to maximum response by 5-HT (1 μM)", "setting": "[1]", "result": 102, "unit": "%"}]}, {"smiles": "CC[C@@H]1COCCN1c1cnc2c(n1)OCCNC2.Cl", "note": "[Example 9, 3-[(3R)-3-ethylmorpholin-4-yl]-6,7,8,9-tetrahydropyrazino[2,3-f][1,4]oxazepine hydrochloride]", "values": [{"measurement": "ratio (%) relative to maximum response by 5-HT (1 μM)", "setting": "[1]", "result": 103, "unit": "%"}]}]}
